According to ChEMBL document CHEMBL1158926, “Norsesterterpenes from the North Adriatic Sponge Ircinia oros” (J Nat Prod, 1990):
≈ marks a conversion by molar mass, not a printed value.

Experiment: Toxicity against Artemia salina
Format: organism-based
Details: in vivo, read-out: LD50 (the source's name)

| SMILES | LC50 [µg/mL] |
| --- | --- |
| C/C(=C\CCc1coc(Cc2ccoc2)c1)CCCC(C)CC(=O)C(O)C(C)Cl (centres undefined) | 8.2 (≈ 19.5 µM) |
| C/C(=C/CCC(C)CC(=O)C(O)C(C)Cl)CCCc1coc(Cc2ccoc2)c1 (centres undefined) | 8.6 (≈ 20.4 µM) |
| CC1=C(O)/C(=C/[C@H](C)CCC/C(C)=C/CCc2coc(Cc3ccoc3)c2)OC1=O [IRCININ 1] | 2.4 (≈ 5.85 µM) |
| CC1=C(O)/C(=C/[C@H](C)CC/C=C(/C)CCCc2coc(Cc3ccoc3)c2)OC1=O [IRCININ 2] | 2.7 (≈ 6.58 µM) |
